{"source": "patent US11679110B2", "about": "“Methods of treating disorders using CSF1R inhibitors” (Deciphera Pharmaceuticals, LLC, priority 2018, dated 2023)", "format_in_all_cases": "in vivo, human", "key": {"CD16+ monocytes": {"tested_on": "CD16+ monocytes", "assay": "Depletion of CSF1R-expressing (CD16+) monocytes in peripheral blood of patients, flow cytometry", "settings": "C2D1 compared to C1D1", "procedure": "PK analysis was conducted on all 38 patients. Serial blood samples were collected for PK and took place on either Day −7, Cycle 1, Day 1 (C1D1) and C2D1 at pre-dose, 0.5, 1, 2, 4, 6, 8, 10-12, and 24 hr time points or Day −7, C1D1, C1D8, and C2D1 at pre-dose, 1, 2, 4, 6, and 8 hr time points, or C1D1, C1D8, and C2D1 at pre-dose, 1, 2, 4, 6, and 8 hr time points. High fat meal was given prior to dosing of Compound 1 on Day −7. PD effects were measured by two methodologies: 1) depletion of CSF1R-expressing monocytes in peripheral blood (Cohorts 1-7) from C1D1, C1D15 and C2D1; and 2) increase of plasma levels of CSF1 and IL-34, the ligands for CSF1R (Cohorts 1-7) on C1D1, C1D15, and C2D1. For the CD16^+ monocyte assay, whole blood collected in an EDTA vacutainer was aliquoted into tubes and incubated with fluorescently-labeled antibodies (CD14-Alexa488 (BD Pharmingen); CD16-PE-Cy7 (BD Pharmingen); and TIE2-APC (R&D Systems). After incubation, red blood cells were lysed, and the remaining cells were washed several times before being analyzed on a flow cytometer. For the plasma CSF1 assay or IL-34, whole blood collected in an EDTA vacutainer was centrifuged, and the plasma was collected and frozen. Plasma levels of CSF1 or IL-34 were measured using a commercial ELISA kit (R&D Systems)."}, "advanced solid tumors": {"tested_on": "advanced solid tumors", "assay": "Antitumor activity in patients with advanced solid tumors, RECIST 1.1", "description": "The study enrolls patients with solid tumors or manifestations of cancer with known contribution of macrophages or phagocytes, i.e., tumors known to have expression of the receptor colony-stimulating factor 1 receptor (CSF1R) or its ligands, Colony stimulating factor-1 (CSF1) or interleukin (IL)-34, confirmed by the literature or prior testing. […]. In addition, tumor-associated manifestations featuring macrophage or osteoclast pathophysiology including bone metastases and ascites or effusions that typically contain high levels of macrophages will be enrolled. […].\nThe study consists of a screening period that is conducted within 28 days prior to the first dose of study drug, a treatment period of 28-day cycles, an End of Treatment visit, and Follow-up Safety visits at both 30 days and 75 days (±5 days) after the last dose of study drug. Patients will be eligible to receive study drug for up to 2 years until tumor progression, occurrence of unacceptable toxicity, or withdrawal of consent, or until commercial supply of the drug is available. […] Patients may continue receiving treatment after tumor progression. […]\n(§1) Tumor response will be assessed by tumor type using the following criteria: for solid tumors and DTGCT: RECIST, Version 1.1; and for bone-only disease: a new lesion(s) identified by bone scan will be considered as disease progression."}, "[1]": {"tested_on": "diffuse-type tenosynovial giant cell tumor", "assay": "Tumor response and symptoms in DTGCT patients (case studies), RECIST version 1.1", "description": "as §1\nAdditional descriptions of case studies of patients with DTGCT treated within this study are provided below: […]"}}, "data": [{"smiles": "Cc1nc(-c2cnc(NC(C)C)n(C)c2=O)ccc1Oc1ccnc(-c2cnn(C)c2)c1", "note": "[Compound 1, 2-(isopropylamino)-3-methyl-5-(6-methyl-5-((2-(1-methyl-1H-pyrazol-4-yl)pyridin-4-yl)oxy)pyridin-2-yl)pyrimidin-4(3H)-one]", "values": [{"measurement": "decrease in levels of CSF1R-expressing monocytes", "setting": "CD16+ monocytes; Cohort 2", "result": "~48", "unit": "%"}, {"measurement": "decrease in levels of CSF1R-expressing monocytes", "setting": "CD16+ monocytes; Cohort 3", "result": "~54", "unit": "%"}, {"measurement": "decrease in levels of CSF1R-expressing monocytes", "setting": "CD16+ monocytes; Cohort 4", "result": "~79", "unit": "%"}, {"measurement": "decrease in levels of CSF1R-expressing monocytes", "setting": "CD16+ monocytes; Cohort 5", "result": "~98", "unit": "%"}, {"measurement": "duration of stable disease", "setting": "advanced solid tumors; a patient with thymoma", "result": 6, "unit": "months"}, {"measurement": "patients with a best response of stable disease", "setting": "advanced solid tumors; advanced solid tumors, dose escalation", "result": 5, "unit": "patients"}, {"measurement": "symptoms", "setting": "[1]; DTGCT Patient 1, Cohort 5", "result": "Improved pain and swelling and effusion were nearly resolved in the first cycle"}, {"measurement": "decrease in tumor size from baseline", "setting": "[1]; DTGCT Patient 1, Cohort 5 (30 mg twice weekly maintenance), C3D1", "result": 48, "unit": "%"}, {"measurement": "decrease in tumor size from baseline", "setting": "[1]; DTGCT Patient 1, Cohort 5, C5D1", "result": 61, "unit": "%"}, {"measurement": "decrease in tumor size from baseline", "setting": "[1]; DTGCT Patient 1, Cohort 5, C7D1", "result": 75, "unit": "%"}, {"measurement": "decrease in tumor size from baseline", "setting": "[1]; DTGCT Patient 1, Cohort 5, C10D1", "result": 84, "unit": "%"}, {"measurement": "symptoms", "setting": "[1]; DTGCT Patient 2, Cohort 5", "result": "pain improvement, increased range of motion, and less stiffness"}, {"measurement": "decrease in tumor size from baseline", "setting": "[1]; DTGCT Patient 2, Cohort 5, C3D1", "result": 25, "unit": "%"}, {"measurement": "symptoms", "setting": "[1]; DTGCT Patient 3, Cohort 5", "result": "rapid symptom improvement, with less pain and swelling and improved range of motion after the first cycle"}, {"measurement": "decrease in tumor size from baseline", "setting": "[1]; DTGCT Patient 3, Cohort 5, C3D1", "result": 24, "unit": "%"}, {"measurement": "tumor response", "setting": "[1]; DTGCT patient", "result": "up to 84%"}]}]}
